We go through 13 molecules from patent EP1889831A2, “Diazenedicarboxamides as inhibitors of D-alanine: D-alanine ligase (Ddl)” (University of Ljubljana, priority 2006, dated 2008).

≈ marks a conversion by molar mass, not a printed value. Where only a bound is given, the exact number is not on record here.

For experiment [1], the system named is E.coli SM 1411. Kind of experiment: Determination of antimicrobial activity (MIC, broth microdilution). The following applies: IsoSensitest broth, inoculum 10^4 cells per mL, 16 h at 37 °C; unit assumed. It counts as cell-based. As for the experimental part: (§1) Minimal inhibitory concentrations (MICs) of compounds were determined by broth microdilution in IsoSensitest broth (Oxoid, Basingstoke, UK) using an inoculum of 10^4 cells per mL for E. coli or 10^6 cells per mL for S. aureus. The compounds under investigation were prepared in a 2-fold dilution series in 50% dimethyl sulfoxide (Sigma-Aldrich, Dorset, UK). Microwell plates with 96 wells (Nunc, Fisher Scientific, Loughborough, UK) containing the antimicrobial agent and bacterial suspension were incubated for 16 h at 37 °C in a Spectramax 384 plus microwell plate reader (Molecular Devices, Abingdon, UK), running SOFTmax PRO 3.1.1 software. Optical density readings (600 nm) were taken at 10 min intervals. Plates were shaken for 30 s before each reading. The MIC was taken as the lowest concentration of antimicrobial agent that prevented growth. The invention is further described in connection with the following non-limiting examples: […]

Experiment [2] has as its system S.aureus 8325-4. The experiment is described as above. The conditions noted are these: IsoSensitest broth, inoculum 10^6 cells per mL, 16 h at 37 °C; unit assumed. It counts as cell-based. The method, then:
as §1

Experiment [3] deals with E.coli 1411. The experiment is described as above. Format: cell-based. The following applies: IsoSensitest broth, inoculum 10^4 cells per mL, 16 h at 37 °C; unit assumed. As for the experimental part: as §1
The target of experiment [4] is DdlB (Escherichia coli, UniProt P07862). Description: Determination of inhibitory activity on DdlB (colorimetric malachite green method). It counts as biochemical, E. coli. The conditions noted are these: 37 °C, 700 µM D-Ala, 500 µM ATP, 30 min incubation, seven inhibitor concentrations. The method, then:
The D-Ala-adding activity of DdlB ligase was monitored by the detection of orthophosphate generated during the reaction based on the colorimetric malachite green method (Walsh, A. et al. J Bacteriol. 1999, 181: 5395). […] All compounds were soluble in the assay mixture containing 5% DMSO. After 30 min of incubation, 100 µL Biomol® reagent was added. After 5 min, absorbance was read at 650 nm. Residual activity was calculated with respect to a similar assay without inhibitor. IC50 constants were determined by measuring residual activity at seven different inhibitor concentrations and represent the concentration of inhibitors where RA is 50%.

Regarding `O=C(N=NC(=O)NCc1ccccn1)NCCCl`, the MIC E.coli SM 1411 in experiment [1] was greater than 256 µg/mL. The MIC S.aureus 8325-4 in experiment [2] is greater than 256 µg/mL. In experiment [3], this molecule returned an MIC E.coli 1411 greater than 256 µg/mL. For the same molecule, in experiment [4], half-maximal inhibition (IC50) required 119 µM.

In experiment [1], `O=C(N=NC(=O)NCc1ccccn1)NCc1ccccn1` registered an MIC E.coli SM 1411 greater than 256 µg/mL. The molecule further displayed an MIC S.aureus 8325-4 in experiment [2] greater than 256 µg/mL. In experiment [3], this molecule showed an MIC E.coli 1411 greater than 256 µg/mL. Further, inhibition in experiment [4] was half-maximal at 158 µM (IC50).

Take `CC(C)c1ccc(NC(=O)N=NC(=O)NCCCl)cc1`: in experiment [1], the MIC E.coli SM 1411 is greater than 256 µg/mL. This molecule also had an MIC S.aureus 8325-4 in experiment [2] greater than 256 µg/mL. The molecule also displayed an MIC E.coli 1411 in experiment [3] greater than 256 µg/mL. For the same molecule, 49 µM corresponded to half-maximal inhibition in experiment [4] (IC50).

Regarding `CCC(C)c1ccc(NC(=O)N=NC(=O)NCCCl)cc1` (stereo not shown), the MIC E.coli SM 1411 in experiment [1] was greater than 256 µg/mL. This molecule also came in with an MIC S.aureus 8325-4 in experiment [2] greater than 256 µg/mL. Besides, in experiment [3], the MIC E.coli 1411 is greater than 256 µg/mL. In experiment [4], this molecule displayed an IC50 of 25 µM.

Turning to `O=C(N=NC(=O)NCc1cccnc1)NCc1cccnc1`, the MIC E.coli SM 1411 in experiment [1] was greater than 256 µg/mL. The molecule further had an MIC S.aureus 8325-4 in experiment [2] greater than 256 µg/mL. The MIC E.coli 1411 in experiment [3] was greater than 256 µg/mL. Also, in experiment [4], the IC50 was 123 µM.

Molecule `O=C(N=NC(=O)NCC(Cl)(Cl)Cl)NCC(Cl)(Cl)Cl` gave an MIC E.coli SM 1411 in experiment [1] greater than 256 µg/mL. In addition, the MIC S.aureus 8325-4 in experiment [2] was greater than 256 µg/mL. The same molecule returned an MIC E.coli 1411 in experiment [3] greater than 256 µg/mL. In experiment [4], this molecule showed an IC50 of 187 µM.

`O=C(/N=N/C(=O)NCCCl)NCCCl` yielded an MIC E.coli SM 1411 in experiment [1] greater than 256 µg/mL. Also, the MIC S.aureus 8325-4 in experiment [2] is greater than 256 µg/mL. The same molecule gave an MIC E.coli 1411 in experiment [3] greater than 256 µg/mL. In experiment [4], this molecule yielded an IC50 of 133 µM.

Regarding `CC(C)(C)c1ccc(NC(=O)N=NC(=O)NCCCl)cc1`, in experiment [1], the MIC E.coli SM 1411 is greater than 256 µg/mL. The MIC S.aureus 8325-4 in experiment [2] is greater than 256 µg/mL. Further, the MIC E.coli 1411 in experiment [3] is greater than 256 µg/mL. In experiment [4], this molecule returned an IC50 of 37 µM.

The molecule `O=C(N=NC(=O)Nc1ccccc1)NCc1ccccn1` came in with an MIC E.coli SM 1411 in experiment [1] of 64 µg/mL (≈ 226 µM). Moreover, the MIC S.aureus 8325-4 in experiment [2] came to 64 µg/mL (≈ 226 µM). Further, the MIC E.coli 1411 in experiment [3] was determined as 64 µg/mL (≈ 226 µM). Further, the IC50 in experiment [4] worked out at 111 µM.

`O=C(N=NC(=O)Nc1cccc(Cl)c1)NCc1cccnc1` gave an MIC E.coli SM 1411 in experiment [1] of 64 µg/mL (≈ 201 µM). The molecule also registered an MIC S.aureus 8325-4 in experiment [2] of 256 µg/mL (≈ 806 µM). Besides, the MIC E.coli 1411 in experiment [3] stood at 64 µg/mL (≈ 201 µM). In addition, in experiment [4], the IC50 came out at 15 µM.

In experiment [1], `CC(NC(=O)N=NC(=O)Nc1ccccc1)c1ccccc1` (stereo not shown) came in with an MIC E.coli SM 1411 greater than 256 µg/mL. This molecule also showed an MIC S.aureus 8325-4 in experiment [2] greater than 256 µg/mL. The same molecule yielded an MIC E.coli 1411 in experiment [3] greater than 256 µg/mL. The molecule also displayed an IC50 in experiment [4] of 41 µM.

Take `O=C(N=NC(=O)Nc1ccccc1)NCc1cccnc1` [drawing 18]: the MIC E.coli SM 1411 in experiment [1] was greater than 256 µg/mL. This molecule also gave an MIC S.aureus 8325-4 in experiment [2] greater than 256 µg/mL. In experiment [3], this molecule yielded an MIC E.coli 1411 greater than 256 µg/mL. Besides, the IC50 in experiment [4] was determined as 76 µM.

Consider `O=C(N=NC(=O)Nc1ccccc1)NCc1cccnc1` [drawing 22], for which the MIC E.coli SM 1411 in experiment [1] was determined as 64 µg/mL (≈ 226 µM). In experiment [2], this molecule showed an MIC S.aureus 8325-4 of 128 µg/mL (≈ 452 µM). In addition, the MIC E.coli 1411 in experiment [3] is 64 µg/mL (≈ 226 µM). In experiment [4], this molecule gave an IC50 of 36 µM.
